Assay results as given in ChEMBL document CHEMBL1150743, “Anti-inflammatory activity of benzoxazinoids from roots of Coix lachryma-jobi var. ma-yuen” (1988).

Each compound was assayed on Mast cell (assay: Antiinflammatory activity in Wistar rat peritoneal mast cells assessed as inhibition of concanavalin A-induced histamine release treated 10 mins before concanavalin A challenge measured after 30 mins).
Assay type: functional

Q: How did the ID50 turn out when `COc1ccc2c(c1)OC(O)C(=O)N2` (racemic) was run?
A: Its ID50 is 6 ×10⁻⁵ M.

Q: For `O=C(O)[C@H]1O[C@@H](Oc2cc3oc(-c4ccccc4)cc(=O)c3c(O)c2O)[C@H](O)[C@@H](O)[C@@H]1O` [BAICALIN], which ID50 is on record?
A: Its ID50 is 3 ×10⁻⁶ M.

Q: How did the ID50 turn out when `COc1ccc2[nH]c(=O)oc2c1` [COIXOL] was run?
A: The ID50 was 1 ×10⁻³ M.

Q: Which ID50 does the source give for `C[C@]12CCC(=O)C=C1CC[C@@H]1[C@@H]2[C@@H](O)C[C@@]2(C)[C@H]1CC[C@]2(O)C(=O)CO` [HYDROCORTISONE] here?
A: Its ID50 is 5 ×10⁻⁵ M.

Q: For `COc1ccc2c(c1)c(CC(=O)O)c(C)n2C(=O)c1ccc(Cl)cc1` [INDOMETHACIN], which ID50 is on record?
A: Its ID50 is 8 ×10⁻⁴ M.
